Measurements from patent US9644000B2, “V1a receptor agonists” (Ferring B.V., priority 2012, dated 2017).
*1 amine or outer side, *2 acyl side, *3 side chain or, on linkers, in order; H or OH if unused. Where a SMILES comes first, the peptide text is derived from it. Bridges are numbered along the chain shown (N, C = ends). Roman numbers before positions name the chains, in order. [ ]: non-standard residue; d: D form. The star is where a group is joined. d(isoGln) = NC(=O)[C@@H](CCC(=O)[*:2])N[*:1]; isoGln = NC(=O)[C@H](CCC(=O)[*:2])N[*:1]; d(εLys) = N[C@H](CCCCN[*:1])C(=O)[*:2]; Aad = N[C@@H](CCCC(=O)O)C(=O)O; Cit = NC(=O)NCCC[C@H](N)C(=O)O; Dab = NCC[C@H](N)C(=O)O; PhAc = O=C(Cc1ccccc1)*

Key:
human V1aR = molecular target: T1, human V1aR (Homo sapiens, UniProt P37288); assay: FLIPR calcium agonist assay in HEK-flpin cells expressing the vasopressin V1a receptor; type: cell-based
T1 construct: expressed in transfected cells
Protocol: Efficacy (% MPE) is also determined as the percentage of maximal possible effect. This agonist assay utilizes cells from a stable cell line (HEK-flpin) expressing the vasopressin V1a receptor. Intracellular calcium increase in response to agonist is measured through real-time fluorescence of an intracellular calcium-sensitive dye. Cells are exposed to varying concentrations of test agonist compounds whereupon release of intracellular calcium is measured to determine the agonist potency and efficacy.
The cell line stably expresses the lacZ-Zeocin™ fusion gene and is designed for use with the Flp-In™ expression vector containing the gene of interest and the Flp recombinase expression plasmid, pOG44. The cell line contains a single integrated Flp Recombination Target (FRT) site from pFRT/lacZeo or pFRT/lacZeo2. To generate the HEK-flpin cell line stably expressing the human V1aR, the cells were co-transfected with the Flp-In™ expression vector containing the gene of interest (pcDNA5/FRT-hV1aR) and the Flp recombinase expression plasmid pOG44. Flp recombinase mediates insertion of the Flp-In™ expression vector into the genome at the integrated FRT site through site-specific DNA recombination. Stable cell lines expressing the hV1aR from the Flp-In™ expression vector can be generated by selection using hygromycin B. See Life Technologies/Invitrogen manual, Growth and Maintenance of Flp-In™ Cell Lines, Version E, published Feb.
Efficacy of this compound was set to be 100%. A stock solution of 5 mM was made up in DMSO and stored at −20° C.
HEK-flpin-hV1aR, cmcqV1aR, dV1aR and pV1aR cells were maintained in DMEM containing 10% (v/v) FBS-HI, 4 mM GlutaMAX™-I, 25 μg/mL Hygromycin B at 37° C. under 5% CO2 in a humidified atmosphere. […]
The cell plates were transferred to FLIPR Tetra, along with a 384 well V-bottom plate pre-loaded with half-log concentrations of test compounds at 10× final test concentrations. […] The agonist-induced fluorescence signal was then measured for 180 s with initial 120 readings at 1-second intervals followed by 20 readings at 3-second intervals. […]

[1] = HRS1 patients; cited from earlier work

T1 sequence (P37288 whole entry): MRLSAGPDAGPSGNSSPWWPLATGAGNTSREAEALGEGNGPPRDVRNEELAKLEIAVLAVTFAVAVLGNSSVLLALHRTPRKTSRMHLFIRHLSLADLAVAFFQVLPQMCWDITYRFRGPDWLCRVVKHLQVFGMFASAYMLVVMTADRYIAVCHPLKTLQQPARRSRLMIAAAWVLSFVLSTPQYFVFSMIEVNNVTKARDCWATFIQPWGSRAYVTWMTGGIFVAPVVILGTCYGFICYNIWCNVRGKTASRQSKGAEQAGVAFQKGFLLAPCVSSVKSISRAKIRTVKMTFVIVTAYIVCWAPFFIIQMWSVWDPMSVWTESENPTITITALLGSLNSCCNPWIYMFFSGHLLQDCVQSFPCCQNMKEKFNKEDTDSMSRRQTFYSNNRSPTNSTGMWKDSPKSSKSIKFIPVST

SMILES	EC50 (human V1aR)	further results
CC[C@H](C)[C@@H]1NC(=O)[C@H](Cc2ccccc2)NC(=O)[C@@H](N)CSSC[C@@H](C(=O)N2CCC[C@H]2C(=O)N[C@@H](CCNC(=O)[C@H](N)CCCCNC(=O)CC[C@@H](NC(=O)[C@H](CCCNC(=N)N)NC(=O)[C@@H]2CCCN2C(=O)[C@H](CCCNC(N)=O)NC(=O)[C@H](CC(N)=O)NC(=O)[C@H](CCC(N)=O)NC(=O)[C@H](Cc2ccccc2)NC(=O)[C@@H](Cc2ccc(OC)cc2)NC(=O)Cc2ccccc2)C(N)=O)C(=O)NCC(N)=O)NC(=O)[C@H](CC(N)=O)NC(=O)[C@H](CCC(N)=O)NC1=O [Compound 55] (I: H-CFIQNCP[Dab]G-NH2 / II: PhAc-[dY](Me)FQN[Cit]PR[d(isoGln)][d(εLys)]; disulfide I:1-I:6; amide I:8-II:C)	1.7 nM	
CC[C@H](C)[C@@H]1NC(=O)[C@H](Cc2ccccc2)NC(=O)[C@@H](N)CSSC[C@@H](C(=O)N2CCC[C@H]2C(=O)N[C@@H](CCNC(=O)[C@H](N)CCCCNC(=O)CC[C@H](NC(=O)[C@H](CCCNC(=N)N)NC(=O)[C@@H]2CCCN2C(=O)[C@H](CCN)NC(=O)[C@H](CC(N)=O)NC(=O)[C@H](CCC(N)=O)NC(=O)[C@H](Cc2ccccc2)NC(=O)[C@@H](Cc2ccc(OC)cc2)NC(=O)Cc2ccccc2)C(N)=O)C(=O)NCC(N)=O)NC(=O)[C@H](CC(N)=O)NC(=O)[C@H](CC(N)=O)NC1=O [Compound 59] (I: H-CFINNCP[Dab]G-NH2 / II: PhAc-[dY](Me)FQN[Dab]PR[isoGln][d(εLys)]; disulfide I:1-I:6; amide I:8-II:C)	1.7 nM	
CC[C@H](C)[C@@H]1NC(=O)[C@H](Cc2ccccc2)NC(=O)[C@@H](N)CSSC[C@@H](C(=O)N2CCC[C@H]2C(=O)N[C@@H](CCNC(=O)[C@H](N)CCCCNC(=O)CC[C@H](NC(=O)[C@H](CCCNC(=N)N)NC(=O)[C@@H]2CCCN2C(=O)[C@H](C)NC(=O)[C@H](CC(N)=O)NC(=O)[C@H](CCC(N)=O)NC(=O)[C@H](Cc2ccccc2)NC(=O)[C@@H](Cc2ccc(OC)cc2)NC(=O)Cc2ccccc2)C(N)=O)C(=O)NCC(N)=O)NC(=O)[C@H](CC(N)=O)NC(=O)[C@H](CCCC(N)=O)NC1=O [Compound 62] (I: H-CFI[Aad](NH2)NCP[Dab]G-NH2 / II: PhAc-[dY](Me)FQNAPR[isoGln][d(εLys)]; disulfide I:1-I:6; amide I:8-II:C)		Efficacy Avg. (% MPE, as compared to AVP) (human V1aR; HEK-flpin-hV1aR cells, AVP efficacy set to 100%): 31%
NCCCC[C@H](NC(=O)[C@@H]1CCCN1C(=O)[C@@H]1CSSC[C@H](NC(=O)CNC(=O)CNC(=O)CN)C(=O)N[C@@H](Cc2ccc(O)cc2)C(=O)N[C@@H](Cc2ccccc2)C(=O)N[C@@H](CCC(N)=O)C(=O)N[C@@H](CC(N)=O)C(=O)N1)C(=O)NCC(N)=O [Terlipressin, terlipressin] (H-GGGCYFQNCPKG-NH2; disulfide 4-9)		patients in whom renal failure is reversed [1]: 30-40%
